From patent US11866518B2, “Bicyclic peptide ligands specific for TSLP” (BicycleTx Limited, priority 2020, dated 2024) come the findings set out here.

*1 amine or outer side, *2 acyl side, *3 side chain or, on linkers, in order; H or OH if unused. Where a SMILES comes first, the peptide text is derived from it. Bridges are numbered along the chain shown (N, C = ends). [ ]: non-standard residue; d: D form. TATA = O=C(CC[*:1])N1CN(C(=O)CC[*:2])CN(C(=O)CC[*:3])C1; Dap = NC[C@H](N)C(=O)O

Chain of TSLP (Q969D9 29-159): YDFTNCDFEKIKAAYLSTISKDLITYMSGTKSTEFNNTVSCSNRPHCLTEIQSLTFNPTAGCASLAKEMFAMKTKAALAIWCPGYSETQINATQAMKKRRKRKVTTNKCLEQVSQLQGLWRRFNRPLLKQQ

This test concerns the target TSLP (Homo sapiens, UniProt Q969D9). The test can be described thus: Human TSLP Surface Plasmon Resonance (SPR) binding assay. Further details: The resulting construct spCD33-6×HN-TEV-hTSLP(29-159)-Avi; 6xHN tag with TEV site (N, cleaved yes); made in house; host or cells: Expi293F cells. The conditions noted are these: biotinylated human TSLP immobilized on streptavidin chip; 20° C.; steady-state or kinetic 1:1 fit; read-out: hTSLP SPR Kd.
In the case of `CC(=O)N[C@H]1CSCCC(=O)N2CN3CN(C2)C(=O)CCSC[C@H](NC(=O)[C@H](CC(=O)O)NC(=O)[C@H](CCC(=O)O)NC(=O)[C@H](CC(C)C)NC(=O)[C@H](Cc2c[nH]c4ccccc24)NC(=O)[C@H](CCC(N)=O)NC1=O)C(=O)N[C@@H](Cc1c[nH]c2ccccc12)C(=O)N[C@@H](CCCNC(=N)N)C(=O)NCC(=O)N[C@@H](Cc1ccncc1)C(=O)N[C@H](C(N)=O)CSCCC3=O` [Example 157, Ac-(SEQ ID NO: 115)], the Kd stood at 3.9 µM.
For `CC(=O)N[C@H]1CSCCC(=O)N2CN3CN(C2)C(=O)CCSC[C@H](NC(=O)[C@H](CC(=O)O)NC(=O)[C@H](CCC(=O)O)NC(=O)[C@H](CC(C)C)NC(=O)[C@H](Cc2c[nH]c4ccccc24)NC(=O)[C@H](CCC(N)=O)NC1=O)C(=O)N[C@@H](Cc1c[nH]c2ccccc12)C(=O)N[C@@H](CCCNC(=N)N)C(=O)NCC(=O)N[C@@H](Cc1cccnc1)C(=O)N[C@H](C(N)=O)CSCCC3=O` [Example 158, Ac-(SEQ ID NO: 116)] the value was 5.4 µM.
Under `CC(=O)N[C@H]1CSCCC(=O)N2CN3CN(C2)C(=O)CCSC[C@H](NC(=O)[C@H](CC(N)=O)NC(=O)[C@H](CCC(=O)O)NC(=O)[C@H](CC(C)C)NC(=O)[C@H](Cc2c[nH]c4ccccc24)NC(=O)[C@H](Cc2c[nH]cn2)NC1=O)C(=O)N[C@@H](Cc1c[nH]c2ccccc12)C(=O)N[C@@H](CN)C(=O)NCC(=O)N[C@@H](Cc1ccccc1)C(=O)N[C@H](C(N)=O)CSCCC3=O` [Example 159, Ac-(SEQ ID NO: 117)] (Ac-CHWLENCW[Dap]GFC-NH2; linker 1-7-12 via TATA; C-terminus assumed) stands 5.6 µM; under `CC(C)C[C@@H]1NC(=O)[C@H](CO)NC(=O)[C@H](CCC(=O)O)NC(=O)[C@@H](NC(=O)[C@H](C)N)CSCCC(=O)N2CN3CN(C2)C(=O)CCSC[C@H](NC(=O)[C@H](CO)NC(=O)[C@H](Cc2c[nH]c4ccccc24)NC(=O)[C@@H]2CCCN2C(=O)[C@H](CC(=O)O)NC1=O)C(=O)N1CCC[C@H]1C(=O)N[C@@H](C(C)C)C(=O)N[C@@H](Cc1c[nH]c2ccccc12)C(=O)N[C@@H](Cc1c[nH]c2ccccc12)C(=O)N[C@@H](CCCNC(=N)N)C(=O)N[C@H](C(=O)N[C@@H](C)C(N)=O)CSCCC3=O` [Example 161, A-(SEQ ID NO: 119)-A] (H-ACESLDPWSCPVWWRCA-NH2; linker 2-10-16 via TATA; N-terminus and C-terminus assumed), 0.89 µM.
For `CC(C)C[C@@H]1NC(=O)[C@H](CO)NC(=O)[C@@H]2CCCN2C(=O)[C@@H](NC(=O)[C@H](C)N)CSCCC(=O)N2CN3CN(C2)C(=O)CCSC[C@H](NC(=O)[C@H]([C@@H](C)O)NC(=O)[C@H](Cc2c[nH]c4ccccc24)NC(=O)[C@@H]2CCCN2C(=O)[C@H](CC(=O)O)NC1=O)C(=O)N[C@@H](CCC(N)=O)C(=O)N[C@@H](CO)C(=O)N[C@@H](Cc1c[nH]c2ccccc12)C(=O)N[C@@H](Cc1ccc(O)cc1)C(=O)N[C@@H](CCC(=O)O)C(=O)N[C@H](C(=O)N[C@@H](C)C(N)=O)CSCCC3=O` [Example 162, A-(SEQ ID NO: 120)-A] the value was 1.5 µM; for `CC(C)C[C@@H]1NC(=O)[C@H](CC(=O)O)NC(=O)[C@H](CCCCN)NC(=O)[C@@H](NC(=O)[C@H](C)N)CSCCC(=O)N2CN3CN(C2)C(=O)CCSC[C@H](NC(=O)[C@H]([C@@H](C)O)NC(=O)[C@H](Cc2c[nH]c4ccccc24)NC(=O)[C@@H]2CCCN2C(=O)[C@H](CC(=O)O)NC1=O)C(=O)N[C@@H](CO)C(=O)N[C@@H](CO)C(=O)N[C@@H](Cc1c[nH]c2ccccc12)C(=O)N[C@@H](Cc1c[nH]c2ccccc12)C(=O)N[C@@H](CCC(=O)O)C(=O)N[C@H](C(=O)N[C@@H](C)C(=O)N1CCC[C@H]1C(=O)N[C@@H](CC(N)=O)C(N)=O)CSCCC3=O` [Example 167, A-(SEQ ID NO: 125)-APN] (H-ACKDLDPWTCSSWWECAPN-NH2; linker 2-10-16 via TATA; N-terminus assumed), 0.17 µM.

The term Kd denotes a measure of binding affinity in units of concentration.
